The source of these data is patent US8173638B2 (Boehringer Ingelheim International GmbH, priority 2006, dated 2012).

Where two headings read alike, the source gives them in different places.

The assay concerns the target T1, human CB2R (Homo sapiens, UniProt P34972).
T1 construct: host or cells: CHO cells
Kind of assay: CB2R mediated modulation of cAMP synthesis. The format is cell-based. To be noted: for Emax: 0.5 h, read-out: Agonist Efficacy (%). Summed up: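 Forskolin (10 uM)-driven cAMP in human CB2R-expressing CHO cells, read with DiscoverX-XS kit after 30 min compound exposure at 37 °C, 1 mM IBMX, 0.25% BSA. 100% defined as forskolin cAMP relative to 1 uM CP55940 inhibition. Agonist EC50 via four-parameter logistic model.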

The mark [1] stands for this setting: CHO cells expressing human CB2R, cAMP inhibited by 1 uM CP55940 defined as 100%.

T1 sequence (P34972 whole entry): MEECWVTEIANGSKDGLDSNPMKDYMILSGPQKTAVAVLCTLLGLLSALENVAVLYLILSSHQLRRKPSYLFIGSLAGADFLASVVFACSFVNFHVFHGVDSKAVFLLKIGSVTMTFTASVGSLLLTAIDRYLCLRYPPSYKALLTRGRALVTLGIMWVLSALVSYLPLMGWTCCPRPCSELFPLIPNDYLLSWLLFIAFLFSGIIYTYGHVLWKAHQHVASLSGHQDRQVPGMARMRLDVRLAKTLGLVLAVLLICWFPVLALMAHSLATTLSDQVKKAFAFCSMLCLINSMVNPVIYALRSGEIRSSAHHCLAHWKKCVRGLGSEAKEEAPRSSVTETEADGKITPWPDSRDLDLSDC

Usually EC50 stands for the concentration at which the effect is half-maximal. On to `CC(C)(C)c1cc(NC(=O)N2CCCN(C(=O)NC3CCCC3)CC2)no1` [Compound 217, [1,4]Diazepane-1,4-dicarboxylic acid 1-[(5-tert-butyl-isoxazol-3-yl)-amide] 4-cyclopentylamide], for which a half-maximal effect (EC50) was put at 32 nM. Also, the Emax (CHO) stood at 100%.
As for `CCC(C)c1ccc(NC(=O)N2CCCN(C(=O)N3CCOCC3)CC2)cc1` (centres unmarked) [Compound 218, 4-(Morpholine-4-carbonyl)-[1,4]diazepane-1-carboxylic acid (4-sec-butyl-phenyl)-amide], the Emax under setting [1] was 82%. In addition, under “read-out: hCB2 cAMP EC50”, the EC50 was found to be 20 nM.
For `CC(C)(C)c1cc(NC(=O)N2CCCN(C(=O)N3CCOCC3)CC2)on1` [Compound 225, 4-(Morpholine-4-carbonyl)-[1,4]diazepane-1-carboxylic acid (3-tert-butyl-isoxazol-5-yl)-amide], the Emax under setting [1] is 106%. For the same molecule, under “read-out: hCB2 cAMP EC50”, the EC50 is 54 nM.
With `CC(C)(C)c1cc(NC(=O)N2CCCN(C(=O)CN3CCSCC3)CC2)no1` [Compound 227, 4-(2-Thiomorpholin-4-yl-acetyl)-[1,4]diazepane-1-carboxylic acid (5-tert-butyl-isoxazol-3-yl)-amide], the Emax under setting [1] worked out at 102%. The EC50 (read-out: hCB2 cAMP EC50) stood at 9.6 nM.
Regarding `CC(C)(C)c1cc(NC(=O)N2CCCN(C(=O)CN3CCC(F)(F)CC3)CC2)no1` [Compound 229, 4-[2-(4,4-Difluoro-piperidin-1-yl)-acetyl]-[1,4]diazepane-1-carboxylic acid (5-tert-butyl-isoxazol-3-yl)-amide], under setting [1], the Emax was 104%. Besides, under “read-out: hCB2 cAMP EC50”, the EC50 was 24 nM.
`CC(C)(C)c1cc(NC(=O)N2CCCN(C(=O)C3CCC(=O)CC3)CC2)no1` [Compound 234, 4-(4-Oxo-cyclohexanecarbonyl)-[1,4]diazepane-1-carboxylic acid (5-tert-butyl-isoxazol-3-yl)-amide] displayed an EC50 of 33 nM. Moreover, the Emax (CHO) came out at 100%.
On to `CCCCc1ccc(NC(=O)N2CCCN(C(=O)CC3CCCC3)CC2)cc1` [Example 11], for which the Emax under setting [1] was determined as 65%. Further, under “read-out: hCB2 cAMP EC50”, the EC50 was found to be 74 nM.
